Measurements: publication PMC8026324, “In Vitro Antiplasmodial, Heme Polymerization, and Cytotoxicity of Hydroxyxanthone Derivatives” (Journal of Tropical Medicine, 2021)
Read-outs that look alike come from different tables or passages of the source.

What was measured:
[1] = tested on: formation of β-hematin (heme polymerization); test: In vitro heme polymerization inhibitory activity (HPIA) assay; format: biochemical
Procedure: The heme polymerization inhibitory activity (HPIA) was conducted according to Basilico et al.'s modified method. The 100 μL of 1 mM hematin in 0.2 M NaOH was added into a microtube. […] Distilled water was used as a negative control. The 50 μL solution of glacial acetic acid (pH 2.6) was added into the microtube to initiate the polymerization reaction and incubated at a temperature of 37°C for 24 hours. Microtubes were centrifuged at 8000 rpm for 10 minutes and the supernatant was discarded and then washed three times using the 200 μL dimethyl sulfoxide (DMSO).Then, the deposition of the hematin crystal was dissolved with 200 μL of 0.1 M NaOH and 100 μL of solution was added into the 96-well microplate.
Absorbance was read using ELISA reader at λ 405 nm. A standard curve was made to illustrate the relationship between the concentration of hematin and its absorbance. The various concentrations of hematin (250; 125; 62.5; 31.25; 15.6; 7.8; and […]) were used to make the standard curve. The heme polymerization inhibition was expressed as IC50, which is the concentration of testing compounds that can inhibit 50% of the formation of β-hematin. The IC50 value was calculated by probit analysis using SPSS software (IBM Corp., Chicago).

[2] = tested on: Plasmodium falciparum 3D-7 (chloroquine-sensitive strain); test: In vitro antiplasmodial activity assay, microscopic method, strain 3D-7; format: cell-based; settings: Plasmodium falciparum
Procedure: (§1) The test of antiplasmodial activity began with the culture of P. falciparum 3D-7 and FCR-3 using the modified Trager and Jensen method. The plasmodium was cultured in human O red blood cells diluted to 3% haematocrit in RPMI 1640 medium complemented with 10% human O serum. The medium was made by adding 10.43 g of powder RPMI 1640, 6 g HEPES, 2 g NaHCO3, 25 mg gentamycin, and sterile distilled water up to 1 L. The medium pH was adjusted so that it reached ±7.2. It was sterilized using a 0.22 μm filter and stored at 4°C. The complete plasmodium culture medium was made by adding human serum with a concentration of 10% in the medium. The plasmodium culture was incubated in candle jar in an incubator with a temperature of 37°C and was observed every 24 hours.
(§2) The plasmodium was synchronized to obtain the ring stage by adding 5% of D-sorbitol. The plasmodium was transferred from culture flask to a conical tube, and then it was centrifuged with a speed of 1000 rpm for 10 minutes. After the supernatant was disposed, the sterile 5% sorbitol was added and incubated for 10 minutes at a temperature of 37°C. The plasmodium suspension was centrifuged again; the supernatant was disposed and the plasmodium was washed by adding culture medium. Then, the plasmodium suspension was centrifuged again, and the supernatant was discarded, resulting in a plasmodium in ring stage only. The parasitemia was calculated from a thin blood preparation. The test used 1% parasitemia at 2% haematocrit in RPMI medium which complemented with 10% human O serum.
(§3) Each testing compound was dissolved in RPMI medium. The testing compound in various concentrations with volume of 100 μL was incorporated into the 96-well microplate, and then 100 μL of Plasmodium suspension was added. Each series of concentrations was replicated three times. The microplate was incubated at a temperature of 37°C for 72 hours. At the end of the incubation, a thin blood smear was made using 10% Giemsa stain and observed under a light microscope at 1000x magnification. The percentage of parasitemia (counting a minimum of 1,000 erythrocytes) was calculated from the preparation of thin blood and then used to calculate the percentage of plasmodium growth inhibition. […] Antiplasmodial activity is expressed as IC50, which is the concentration of a compound that is required for 50% inhibition of plasmodium growth. The IC50 value was calculated by probit analysis using SPSS software (IBM Corp., Chicago). The lower the IC50 value obtained, the greater the antiplasmodial activity.

[3] = tested on: formation of β-hematin (heme polymerization); settings: read-out: IC50 of chloroquine for heme polymerization inhibition, reference value; threshold reference value; cited from earlier work
[4] = tested on: Plasmodium falciparum FCR-3 (chloroquine-resistant strain); test: In vitro antiplasmodial activity assay, microscopic method, strain FCR-3; format: cell-based; settings: Plasmodium falciparum
Procedure: as §1, §2, §3

[5] = read-out: Growth inhibition of P. falciparum Strain 3D-7
[6] = FCR3, read-out: Growth inhibition of P. falciparum Strain FCR-3

CCN(CC)CCCC(C)Nc1ccnc2cc(Cl)ccc12 (stereo not drawn) [Chloroquine, reference compound]
IC50 ([1]; 24 hours, 37°C, glacial acetic acid pH 2.6): 1480 µM
Inhibition of β-hematin ([1]; compound 0.601 mM): 29.080%
β-Hematin formed ([1]; compound 0.601 mM): 77.787 mM
Inhibition of β-hematin ([1]; compound 1.221 mM): 47.315%
β-Hematin formed ([1]; compound 1.221 mM): 57.787 mM
Inhibition of β-hematin ([1]; compound 2.423 mM): 56.379%
β-Hematin formed ([1]; compound 2.423 mM): 47.845 mM
Inhibition of β-hematin ([1]; compound 4.846 mM): 79.906%
β-Hematin formed ([1]; compound 4.846 mM): 22.040 mM
Inhibition of β-hematin ([1]; compound 9.692 mM): 88.604%
β-Hematin formed ([1]; compound 9.692 mM): 12.500 mM
IC50 ([2]; 72 h, read-out: IC50 on P. falciparum 3D-7): 0.01 ± 0.001 µM
inhibition at 0.008 µM [2, 5]: 54.4 ± 12.4%
inhibition at 0.016 µM [2, 5]: 96.4 ± 1.13%
inhibition at 0.023 µM [2, 5]: 96.6 ± 1.33%
inhibition at 0.029 µM [2, 5]: 97.49 ± 0.517%
inhibition at 0.037 µM [2, 5]: 97.77 ± 0.69%
IC50 [3]: 37500 µM
IC50 ([4]; FCR3, 72 h, read-out: IC50 on P. falciparum FCR-3): 0.11 ± 0.052 µM
inhibition at 0.008 µM [4, 6]: 18.7 ± 9.23%
inhibition at 0.016 µM [4, 6]: 78.6 ± 4.51%
inhibition at 0.023 µM [4, 6]: 79.9 ± 3.86%
inhibition at 0.029 µM [4, 6]: 82.6 ± 2.94%
inhibition at 0.037 µM [4, 6]: 84.2 ± 2.45%
